Source: patent US12048686B2, “Compositions and methods for activating NRF2-dependent gene expression” (The University of Chicago, priority 2018, dated 2024)

Columns and labels:
[1] = molecular target: T1, PGK1 (Homo sapiens, UniProt P00558); test: Isothermal dose response profiling of PGK1 against GAPDH; assay type: binding; conditions: 57° C., 0-333 μM
T1 sequence (P00558 1-417): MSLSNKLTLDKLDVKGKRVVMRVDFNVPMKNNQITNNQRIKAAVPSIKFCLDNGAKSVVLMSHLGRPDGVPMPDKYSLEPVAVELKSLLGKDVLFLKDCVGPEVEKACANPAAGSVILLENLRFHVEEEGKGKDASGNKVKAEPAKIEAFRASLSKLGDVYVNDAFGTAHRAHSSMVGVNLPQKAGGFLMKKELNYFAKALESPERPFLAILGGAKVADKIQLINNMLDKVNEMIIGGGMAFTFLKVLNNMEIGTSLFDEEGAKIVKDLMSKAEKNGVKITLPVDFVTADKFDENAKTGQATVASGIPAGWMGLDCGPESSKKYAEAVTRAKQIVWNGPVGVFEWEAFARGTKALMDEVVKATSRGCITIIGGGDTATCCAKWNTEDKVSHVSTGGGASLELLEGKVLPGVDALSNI
Description: FIG. 5A-E. A photoactivatable affinity probe-based approach identifies PGK1 as the relevant cellular target of CBR-470-1. (a) Silver staining and anti-biotin Western blots of ammonium sulfate fractionated lysates from UV-irradiated IMR32 cells treated with 5 μM for 1 hour with or without CBR-470-1 competition (250 μM) (n=3). Shown on the right are initial proteomic target results from gel-band digestion and LC-MS/MS analysis. (b) Dye-based thermal denaturation assay with recombinant PGK1 in the presence CBR-470-1 (20 μM) or vehicle alone (n=3). Calculated Tm values are listed. (c, d) Dose-dependent thermal stability assay of recombinant PGK1 and GAPDH in the presence of increasing doses of CBR-470-1 near the Tm of both proteins (57° C.) (c) (n=5) or room temperature (d) (n=3). Western blot of sample supernatants after centrifugation (13,000 rpm) detected total PGK1 and GAPDH protein, which were plotted in Prism (below). (e) ARE-LUC reporter activity in HEK293T cells with transient shRNA.
Isothermal dose response profiling of PGK1. In-vitro thermal profiling assay for recombinant proteins was performed by dissolving pure recombinant PGK1 and GAPDH into PBS and dividing equal amount of mixture into 9 aliquots. […] Samples were analyzed by SDS-PAGE and Western blot.

[2] = test system: MHS cells (a murine alveolar macrophage cell line); test: PM- or LPS-induced mRNA expression in MHS cells; assay type: cell-based
Description: FIG. 14A-B. MHS cells (a murine alveolar macrophage cell line) were treated with particulate matter (PM) or LPS and vehicle control (media) in the absence or presence of CBR-470-1 (pretreated 4 hours prior to PM/LPS) and measured IL-6 mRNA 4 hours later.
FIG. 15A-B. MHS cells were treated with particulate matter (PM) or LPS and vehicle control (media) in the absence or presence of CBR-470-1 (also noted as Drug in the figure) (pretreated 4 hours prior to PM/LPS) and measured TNFa and NQO1 mRNA 4 hours later. […] NQO1 (NAD(P)H:quinone oxidoreductase), also known as DT-diaphorase, is a major regulator of oxidative stress and activator of mitomycins. ROS produced during metabolic processes are normally converted into harmless products by antioxidant enzymes such as NQO1.
FIG. 16A-B. MHS cells were treated with particulate matter (PM) or LPS and vehicle control (media) in the absence or presence of different doses of CBR-470 (pretreated 4 hours prior to PM/LPS) and measured IL-6 mRNA 4 hours later.
FIG. 17A-B. MHS cells were treated with particulate matter (PM) or LPS and vehicle control (media) in the absence or presence of different doses of CBR-470-1 (pretreated 4 hours prior to PM/LPS) and measured TNFa and NQO1 mRNA 4 hours later.
FIG. 18A-C. MHS cells were treated with particulate matter (PM) or LPS and vehicle control (media) in the absence or presence of CBR-470-1 (5 uM, pretreated 4 hours prior to PM/LPS) and measured IL-6, TNFa and NQO1 mRNA 4 hours and 24 hours later.

[3] = pretreated 4 hours, measured 4 hours later

CC(C)CN[C@H]1CS(=O)(=O)C[C@@H]1S(=O)(=O)c1ccc(Cl)cc1 [CBR-470-1]
alteration of PGK1 stability, isothermal dose response against PGK1 and GAPDH [1]: selective, dose-dependent alteration of PGK1 stability
NQO1 mRNA ([2]; different doses, 4 hours): induced NQO1 (Nrf2 target gene) under both PM and LPS in a dose dependent manner
TNFa mRNA ([2]; different doses, 4 hours): attenuated PM- and LPS-induced TNFa mRNA expression
IL-6 mRNA [2, 3]: abolished PM- and LPS-induced il6 mRNA expression
NQO1 mRNA [2, 3]: induced NQO1 (Nrf2 target gene) under both PM and LPS
TNFa mRNA [2, 3]: abolished PM- and LPS-induced TNFa mRNA expression
